Patent US6066619A, “Non-aqueous protic peptide formulations” (Alza Corporation, priority 1999, dated 2000)

test: Gelation of non-aqueous protic solvent formulations on adding polar aprotic solvent; format: physicochemical; details: adding polar aprotic solvents such as DMSO to non-aqueous protic solvent formulation
Excerpt: Thus, these solvents have an anti-gellant effect.

gelation of the formulation | Compound
prevents gelation | CC(C)C[C@H](NC(=O)[C@@H](COC(C)(C)C)NC(=O)[C@H](Cc1ccc(O)cc1)NC(=O)[C@H](CO)NC(=O)[C@H](Cc1c[nH]c2ccccc12)NC(=O)[C@H](Cc1cnc[nH]1)NC(=O)[C@@H]1CCC(=O)N1)C(=O)N[C@@H](CCCNC(=N)N)C(=O)N1CCC[C@H]1C(=O)NNC(N)=O [goserelin]
prevents gelation | calcitonin
prevents gelation | CCNC(=O)[C@@H]1CCCN1C(=O)[C@H](CCCNC(=N)N)NC(=O)[C@H](CC(C)C)NC(=O)[C@@H](CC(C)C)NC(=O)[C@H](Cc1ccc(O)cc1)NC(=O)[C@H](CO)NC(=O)[C@H](Cc1c[nH]c2ccccc12)NC(=O)[C@H](Cc1c[nH]cn1)NC(=O)[C@@H]1CCC(=O)N1 [leuprolide]
